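48-hour exposure; five concentrations; linearly interpolated endpoints. GI50 is the concentration that inhibits growth by half. TGI: total growth inhibition.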
How the values were obtained:
Assay in all cases: NCI tumour cell line growth inhibition, 48 h
[1] = test system: NCI-H226 lung
[2] = test system: TK-10 renal
[3] = test system: SF-295 CNS
[4] = test system: NCI/ADR-RES ovarian
[5] = test system: HCT-15 colon
[6] = test system: SK-MEL-5 melanoma
[7] = test system: K-562 leukemia
[8] = test system: MOLT-4 leukemia
[9] = test system: SN12C renal
[10] = test system: SNB-19 CNS
[11] = test system: SNB-75 CNS
[12] = test system: NCI-H23 lung
[13] = test system: 786-0 renal
[14] = test system: RXF 393 renal
[15] = test system: SF-268 CNS
[16] = test system: MCF7 breast
[17] = test system: SR leukemia
[18] = test system: DU-145 prostate
[19] = test system: RPMI-8226 leukemia
[20] = test system: HT29 colon
[21] = test system: KM12 colon
[22] = test system: CCRF-CEM leukemia
[23] = test system: COLO 205 colon
[24] = test system: UACC-62 melanoma
[25] = test system: A549 NSCLC
[26] = test system: NCI-H460 lung
[27] = test system: MDA-MB-435
[28] = test system: A498 renal
[29] = test system: T-47D breast
[30] = test system: UACC-257 melanoma
[31] = test system: NCI-H522 lung
[32] = test system: HS 578T breast
[33] = test system: HOP-62 NSCLC
[34] = test system: MDA-MB-231 breast
[35] = test system: OVCAR-3 ovarian
[36] = test system: CAKI-1 renal
[37] = test system: HCC-2998 colon
[38] = test system: PC-3 prostate
[39] = test system: U251 CNS
[40] = test system: UO-31 renal
[41] = test system: HL-60(TB) leukemia
[42] = test system: LOX IMVI melanoma
[43] = test system: SK-MEL-28 melanoma
[44] = test system: M14 melanoma
[45] = test system: SW-620 colon
[46] = test system: SF-539 CNS
[47] = test system: SK-MEL-2 melanoma
[48] = test system: IGROV1 ovarian
[49] = test system: SK-OV-3 ovarian
[50] = test system: OVCAR-5 ovarian
[51] = test system: BT-549 breast
[52] = test system: MALME-3M melanoma
[53] = test system: HOP-92 NSCLC
[54] = test system: OVCAR-4 ovarian
[55] = test system: HCT-116 colon
[56] = test system: OVCAR-8 ovarian
[57] = test system: ACHN renal

In the case of `COc1cccc(C2=C(c3cn(C)c4cccc(OC)c34)C(=O)NC2=O)c1`, the GI50 [1] is reported as > 25 µM, the TGI [1] is reported as > 25 µM and the GI50 [2] is reported as 15.3 µM. For the same compound, the TGI [2] was > 25 µM, the GI50 [3] was 7.05 µM and the TGI [3] was > 25 µM. For the same compound, the GI50 [4] was 5.28 µM, the TGI [4] was > 25 µM and the GI50 [5] was 3.41 µM. For the same compound, the TGI [5] was > 25 µM, the GI50 [6] was 7.36 µM and the TGI [6] was > 25 µM. The GI50 [7] was 3.51 µM, the TGI [7] was > 25 µM and the GI50 [8] was 12.5 µM. The TGI [8] was > 25 µM, the GI50 [9] was 15.1 µM and the TGI [9] was > 25 µM. The GI50 [10] was > 25 µM, the TGI [10] was > 25 µM and the GI50 [11] was 4.94 µM. For the same compound, the TGI [11] was 24.5 µM, the GI50 [12] was 19.6 µM and the TGI [12] was > 25 µM. The GI50 [13] was 17.9 µM, the TGI [13] was > 25 µM and the GI50 [14] was 5.03 µM. The TGI [14] was > 19 µM, the GI50 [15] was 16.4 µM and the TGI [15] was > 25 µM. The GI50 [16] was 6.99 µM, the TGI [16] was > 25 µM and the GI50 [17] was 2.08 µM. For the same compound, the TGI [17] was > 25 µM, the GI50 [18] was 10.7 µM and the TGI [18] was > 25 µM. The GI50 [19] was 9.09 µM, the TGI [19] was > 24.1 µM and the GI50 [20] was 5.34 µM. The TGI [20] was > 25 µM, the GI50 [21] was 6.01 µM and the TGI [21] was > 25 µM. The GI50 [22] was 10.4 µM, the TGI [22] was > 25 µM and the GI50 [23] was 6.48 µM. For the same compound, the TGI [23] was > 20.3 µM, the GI50 [24] was 7.17 µM and the TGI [24] was > 25 µM. For the same compound, the GI50 [25] was 11.2 µM, the TGI [25] was > 25 µM and the GI50 [26] was 8.75 µM. The TGI [26] was > 25 µM, the GI50 [27] was 0.832 µM and the TGI [27] was > 9.17 µM. For the same compound, the GI50 [28] was 4.9 µM, the TGI [28] was > 25 µM and the GI50 [29] was 13.7 µM. For the same compound, the TGI [29] was > 25 µM, the GI50 [30] was > 15.9 µM and the TGI [30] was > 25 µM. For the same compound, the GI50 [31] was 1.67 µM, the TGI [31] was > 19.7 µM and the GI50 [32] was 8.93 µM. For the same compound, the TGI [32] was > 25 µM, the GI50 [33] was 18.8 µM and the TGI [33] was > 25 µM. For the same compound, the GI50 [34] was 17.9 µM, the TGI [34] was > 25 µM and the GI50 [35] was 7.74 µM. The TGI [35] was > 25 µM, the GI50 [36] was 9.79 µM and the TGI [36] was > 25 µM. For the same compound, the GI50 [37] was > 25 µM, the TGI [37] was > 25 µM and the GI50 [38] was 8.02 µM. For the same compound, the TGI [38] was > 25 µM, the GI50 [39] was 11.5 µM and the TGI [39] was > 25 µM. For the same compound, the GI50 [40] was 17.9 µM, the TGI [40] was > 25 µM and the GI50 [41] was 9.75 µM. The TGI [41] was > 25 µM, the GI50 [42] was 17.1 µM and the TGI [42] was > 25 µM. For the same compound, the GI50 [43] was > 19.1 µM, the TGI [43] was > 25 µM and the GI50 [44] was 7.98 µM. For the same compound, the TGI [44] was > 25 µM, the GI50 [45] was 6.89 µM and the TGI [45] was > 25 µM. It also gave a GI50 [46] of 6.58 µM, a TGI [46] of 18.6 µM and a GI50 [47] of 7.75 µM. The TGI [47] was > 25 µM, the GI50 [48] was 7.49 µM and the TGI [48] was > 25 µM. The GI50 [49] was 11.6 µM, the TGI [49] was > 25 µM and the GI50 [50] was > 23.5 µM. The TGI [50] was > 25 µM, the GI50 [51] was 12.9 µM and the TGI [51] was > 25 µM. The GI50 [52] was > 16.6 µM, the TGI [52] was > 25 µM and the GI50 [53] was 8.89 µM. The TGI [53] was > 25 µM, the GI50 [54] was > 21.3 µM and the TGI [54] was > 25 µM. The GI50 [55] was 9.55 µM, the TGI [55] was > 25 µM and the GI50 [56] was 18.5 µM. For the same compound, the TGI [56] was > 25 µM, the GI50 [57] was 15.5 µM and the TGI [57] was > 25 µM.
